Emax data for one compound are collected here from publication PMC10698194 (Nature Communications, 2023).

Type in all cases: cell-based
For one experiment, the target named is T1, human KOR E209A (Homo sapiens, UniProt P41145, E209A).
T1 construct: FLAG; expressed in transfected cells; host or cells: HEK293 / HEK293T, transient
Description: BRET β-arrestin-2 biosensor assay. Conditions: KOR E209A.

The target in another experiment is T2, human KOR E297A (Homo sapiens, UniProt P41145, E297A).
T2 construct: FLAG; expressed in transfected cells; host or cells: HEK293T
T2 sequence (P41145 whole entry E297A): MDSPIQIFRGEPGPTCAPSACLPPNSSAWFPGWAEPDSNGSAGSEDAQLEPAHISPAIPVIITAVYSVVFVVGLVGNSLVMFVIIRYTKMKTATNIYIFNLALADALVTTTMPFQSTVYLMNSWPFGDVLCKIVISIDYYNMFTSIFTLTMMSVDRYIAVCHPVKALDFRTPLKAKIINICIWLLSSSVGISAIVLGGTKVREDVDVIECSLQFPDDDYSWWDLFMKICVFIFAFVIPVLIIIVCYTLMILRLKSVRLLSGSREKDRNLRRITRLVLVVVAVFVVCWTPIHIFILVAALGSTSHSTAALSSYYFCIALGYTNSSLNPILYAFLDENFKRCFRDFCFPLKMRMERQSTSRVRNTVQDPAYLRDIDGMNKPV
Particulars: HEK-293T, KOR E297A.

A further experiment concerns the target mouse KOR, GαoA (Mus musculus, UniProt P33534). In words: TRUPATH BRET G protein assay, GαoA. Conditions: read-out: Emax (%) GαoA.

Bridge positions count the residues as written; N and C are the ends. Square brackets hold non-standard residues; d marks the D form. Peptide text beside a SMILES is read from it. * marks the point of attachment. X1 = C=CCN1CC[C@]23c4c5ccc(O)c4O[C@H]2[C@H](N*)CC[C@@]3(O)[C@H]1C5

mouse KOR, GαoA, sequence (P33534 whole entry): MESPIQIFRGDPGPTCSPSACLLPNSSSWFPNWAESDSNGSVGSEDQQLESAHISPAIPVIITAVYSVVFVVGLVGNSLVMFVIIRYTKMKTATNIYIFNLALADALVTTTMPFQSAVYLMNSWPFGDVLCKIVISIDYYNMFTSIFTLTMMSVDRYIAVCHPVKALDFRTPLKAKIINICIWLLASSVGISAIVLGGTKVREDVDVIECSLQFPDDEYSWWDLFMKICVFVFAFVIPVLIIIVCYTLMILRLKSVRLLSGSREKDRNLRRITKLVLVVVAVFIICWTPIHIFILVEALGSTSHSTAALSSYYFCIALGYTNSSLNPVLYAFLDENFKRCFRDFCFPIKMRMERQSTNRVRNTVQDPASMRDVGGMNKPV
mouse KOR, GαoA, sequence (P09471 2-354 partner): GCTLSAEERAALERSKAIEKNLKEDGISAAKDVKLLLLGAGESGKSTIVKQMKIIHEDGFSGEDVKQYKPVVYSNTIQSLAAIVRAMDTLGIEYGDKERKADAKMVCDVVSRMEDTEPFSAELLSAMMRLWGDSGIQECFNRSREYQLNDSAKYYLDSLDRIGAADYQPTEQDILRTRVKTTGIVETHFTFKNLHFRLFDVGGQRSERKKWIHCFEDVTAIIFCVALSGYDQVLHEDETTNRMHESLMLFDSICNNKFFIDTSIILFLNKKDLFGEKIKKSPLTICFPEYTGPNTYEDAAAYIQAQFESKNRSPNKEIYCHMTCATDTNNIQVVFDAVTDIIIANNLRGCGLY
T1 sequence (P41145 whole entry E209A): as the sequence (P41145 whole entry E297A) above, with E209A, A297E counted along it

For the compound `C=CCN1CC[C@]23c4c5ccc(O)c4O[C@H]2[C@H](NC(=O)[C@@H](Cc2ccccc2)NC(=O)[C@@H](NC(=O)[C@@H]2CSCC(=O)N[C@@H](Cc4ccc(O)cc4)C(=O)N[C@@H](C)C(=O)N[C@H](Cc4ccc(O)cc4)C(=O)N[C@@H]([C@@H](C)O)C(=O)N[C@@H]([C@@H](C)O)C(=O)N2)[C@@H](C)O)CC[C@@]3(O)[C@H]1C5` [DNCP-β-NalA(1)] ({CH2CO}-YA[dY]TTCT[dF]-X1; thioether N-6), the Emax at human KOR E209A amounted to 87.3 ± 1.31%; on human KOR E297A, 96.28 ± 0.53%; at mouse KOR, GαoA, 56 ± 7%.
